The values that follow come from US5126366A, “Aminophenoxyalkyl derivatives of benzodioxan” (American Home Products Corporation, priority 1991, dated 1992).

As usually defined, the IC50 is the concentration that inhibits the measured activity by half.

Structures are written as SMILES. Like-named read-outs stand apart in the source and are kept apart here.

One assay deals with 5-HT1A receptor. The settings on record: cited from earlier work.
In the next assay the test system is mouse locomotor activity. Description: Reduction of mouse locomotor activity (Martin and Bendensky). The class given is in vivo, mice (male, CF-1). As to conditions: horizontal activity counts 10 to 20 minutes after dosing; for ED50: ip, read-out: Hypolocomotion (ED50 mg/kg, ip).
A further assay deals with synthesis of dopamine. Description: Inhibition of dopa accumulation in GBL/NSD-1015-treated rats (dopamine autoreceptor agonism; Walters and Roth). The class given is in vivo, rats (male, Sprague-Dawley). The settings on record: sc, rat. The text has this: The effect of the compounds of the invention on the synthesis of dopamine was established by the method of Walters and Roth, Naunyn-Schmiedeberg's Arch. […] Following perchloric acid extraction of the tissue, the extracts were placed over alumina columns to collect and concentrate dopa and other catechols. This eluate was then subjected to HPLC analysis using electrochemical detection to quantify the levels of dopa present. Dopamine autoreceptor agonists, under the conditions used above, inhibit dopa accumulation.

The next assay deals with T1, dopamine D2 receptor (Rattus norvegicus, UniProt P61169).
T1 construct: homogenized limbic brain tissue is incubated with ^3 H-spiroperidol; from tissue; host or cells: homogenized limbic brain tissue
As to the kind of experiment: Dopamine D2 receptor affinity, 3H-spiroperidol binding in homogenized limbic brain tissue.

Assay [1] deals with T2, serotonin 5-HT1A receptor (Rattus norvegicus, UniProt P19327).
T2 construct: following the procedure of Hall et al., J. Neurochem; 44, 1685 (1985); from tissue
T2 sequence (P19327 1-422): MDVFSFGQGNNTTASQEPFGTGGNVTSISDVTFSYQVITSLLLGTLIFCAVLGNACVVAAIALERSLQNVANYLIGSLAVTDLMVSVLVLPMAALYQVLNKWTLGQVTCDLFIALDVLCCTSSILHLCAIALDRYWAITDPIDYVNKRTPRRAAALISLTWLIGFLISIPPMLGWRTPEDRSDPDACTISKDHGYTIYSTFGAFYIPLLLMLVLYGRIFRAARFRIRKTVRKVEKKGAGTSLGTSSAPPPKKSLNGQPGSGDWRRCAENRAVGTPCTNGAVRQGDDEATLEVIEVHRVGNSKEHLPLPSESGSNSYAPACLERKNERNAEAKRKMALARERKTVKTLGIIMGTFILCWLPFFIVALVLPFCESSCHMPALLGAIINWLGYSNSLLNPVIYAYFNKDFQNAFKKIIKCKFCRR
As to the kind of experiment: Serotonin 5-HT1A receptor affinity, displacement of [3H]8-OHDPAT. As to conditions: for inhibition at 0.1 µM: read-out: Receptor Affinities 5-HT1A (% @ ( ) μM). The class given is binding. The text has this: Affinity for the serotonin 5-HT1A receptor was established by testing the claimed compound's ability to displace [^3 H]8-OHDPAT (dipropylaminotetralin) from the 5-HT1A serotonin receptor following the procedure of Hall et al., J. Neurochem. 44, 1685 (1985). […] The anxiolytic activity of buspirone is believed to be, at least partially, due to its 5-HT1A receptor affinity (Vander Maclen et al., Eur. J. Pharmacol. 1986, 129 (1-2) 133-[…]).
For orientation: In a radioligand displacement assay an active substance lowers the binding of a labelled ligand.

Setting [2] is: limbic (L) brain tissue, read-out: Dopa Accumulation (% inhib. @ 10 mg/kg, sc), limbic (L).
Setting [3] is: striatal (S) brain tissue, read-out: Dopa Accumulation (% inhib. @ 10 mg/kg, sc), striatal (S).

T1 sequence (P61169 whole entry): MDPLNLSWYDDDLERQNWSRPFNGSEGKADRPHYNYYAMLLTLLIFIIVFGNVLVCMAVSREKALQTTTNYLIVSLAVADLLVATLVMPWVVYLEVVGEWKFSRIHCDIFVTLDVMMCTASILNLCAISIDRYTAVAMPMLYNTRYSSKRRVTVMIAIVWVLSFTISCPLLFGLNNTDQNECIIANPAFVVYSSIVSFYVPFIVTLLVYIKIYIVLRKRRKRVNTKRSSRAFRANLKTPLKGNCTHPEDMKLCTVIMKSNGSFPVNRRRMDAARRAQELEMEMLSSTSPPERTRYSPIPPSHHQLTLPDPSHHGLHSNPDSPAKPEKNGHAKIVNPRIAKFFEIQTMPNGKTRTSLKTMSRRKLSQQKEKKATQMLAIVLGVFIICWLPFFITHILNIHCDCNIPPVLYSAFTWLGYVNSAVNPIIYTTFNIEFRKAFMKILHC

In the case of `O=C1CC2(CCCC2)CC(=O)N1CCCCNCC1COc2ccccc2O1` (single isomer, unassigned; (-)) [(-)-MDL 72832], the “binding at the 5-HT1A receptor site relative to the dextrorotary isomer” value in the assay with 5-HT1A receptor ((-)-isomer versus dextrorotary isomer, Fozard et al.) was 32 times.

On to `Nc1cccc(OCCCNCC2COc3ccccc3O2)c1` (centres unmarked) [Example 1, N-[3-(3-Aminophenoxy)propyl]-2,3-dihydro-1,4-benzodioxin-2-methanamine], for which the ED50 with mouse locomotor activity was 0.38 mg/kg. Besides, the values for the inhibition at 10 mg/kg with synthesis of dopamine (setting [2]) and with synthesis of dopamine (setting [3]) were 33% and 46%, respectively. Also, the IC50 was found to be 525 nM on dopamine D2 receptor (read-out: Receptor Affinities D2 IC50) and 4 nM in assay [1] (read-out: Receptor Affinities 5-HT1A IC50). As for `COc1cccc2c1OCC(CNCCCOc1cccc(N)c1)O2` (centres unmarked) [Example 2, N-[3-(3-Aminophenoxy)propyl]-2,3-dihydro-5-methoxy-1,4-benzodioxin-2-methanamine], in the assay with synthesis of dopamine (setting [2]), the inhibition at 10 mg/kg is -22%. With `Nc1cccc(OCCCNCC2COc3ccc(O)cc3O2)c1` (centres unmarked) [Example 3, N-[3-(3-Aminophenoxy)propyl]-2,3-dihydro-7-hydroxy-1,4-benzodioxin-2-methanamine], the ED50 in the assay on mouse locomotor activity (Mus musculus) is 0.16 mg/kg. In addition, the “Hypolocomotion (ED50 mg/kg, ip)” value in the assay with mouse locomotor activity turned out to be 0.15 mg/kg. Moreover, the figures for the inhibition at 10 mg/kg in the assay on synthesis of dopamine (setting [2]) and with synthesis of dopamine (setting [3]) were 64% and 66%, respectively. With `Nc1cccc(OCCCNC[C@H]2COc3ccc(O)cc3O2)c1` [Example 4, (S)-N-[3-(3-Aminophenoxy)propyl]-2,3-dihydro-7-hydroxy-1,4-benzodioxin-2-methanamine], the ED50 in the assay with mouse locomotor activity (Mus musculus) came to 0.08 mg/kg. The inhibition at 10 mg/kg was determined as 70% in the assay with synthesis of dopamine (setting [2]) and 71% in the assay with synthesis of dopamine (setting [3]). In the case of `Nc1cccc(OCCCNCC2COc3cc(O)ccc3O2)c1` (centres unmarked) [Example 5, N-[3-(3-Aminophenoxy)propyl]-2,3-dihydro-6-hydroxy-1,4-benzodioxin-2-methanamine], the inhibition at 10 mg/kg in the assay on synthesis of dopamine (setting [2]) amounted to 31%; in the assay on synthesis of dopamine (setting [3]), 30%. Take `Nc1cccc(OCCCNCC2COc3c(O)cccc3O2)c1` (centres unmarked) [Example 6, N-[3-(3-Aminophenoxy)propyl]-2,3-dihydro-5-hydroxy-1,4-benzodioxin-2-methanamine]: the inhibition at 10 mg/kg in the assay with synthesis of dopamine (setting [2]) was found to be 23%; with synthesis of dopamine (setting [3]), 30%. As to `Nc1cccc(OCCCNC[C@@H]2COc3ccc(O)cc3O2)c1` [Example 7, (R)-N-[3-(3-Aminophenoxy)propyl]-2,3-dihydro-7-hydroxy-1,4-benzodioxin-2-methanamine], the ED50 with mouse locomotor activity (Mus musculus) stood at 1.34 mg/kg. The inhibition at 10 mg/kg in the assay on synthesis of dopamine (setting [2]) was 27%; with synthesis of dopamine (setting [3]), 19%. In the case of `COc1ccc2c(c1)OC(CNCCCOc1cccc(N)c1)CO2` (centres unmarked) [Example 8, N-[3-(3-Aminophenoxy)propyl]-2,3-dihydro-7-methoxy-1,4-benzodioxin-2-methanamine], the inhibition at 10 mg/kg in the assay with synthesis of dopamine (setting [2]) worked out at 42.9%. Also, the inhibition at 1 µM on dopamine D2 receptor (% at 1.0 μM, read-out: Receptor Affinities D2 (% @ ( ) μM)) turned out to be 48%. Also, the inhibition at 0.1 µM in assay [1] came to 95%. On to `Nc1cccc(OCCCNC[C@H]2COc3ccccc3O2)c1` [Example 9, (S)-N-[3-(3-Aminophenoxy)propyl]-2,3-dihydro-1,4-benzodioxin-2-methanamine], for which the ED50 in the assay on mouse locomotor activity is 0.19 mg/kg. Further, the inhibition at 0.1 µM in assay [1] turned out to be 100%.

With `Nc1cccc(OCCCNCC2COc3cc4c(cc3O2)OCO4)c1` (centres unmarked) [Example 10, N-[3-(3-Aminophenoxy)propyl]-2,3-dihydro-6,7-methylenedioxy-1,4-benzodioxin-2-methanamine], in the assay on mouse locomotor activity, the ED50 was found to be 1.8 mg/kg. The inhibition at 10 mg/kg in the assay on synthesis of dopamine (setting [2]) was 70.9%. In assay [1], the inhibition at 0.1 µM was 54%. In the case of `COc1cccc2c1OC(CNCCCOc1cccc(N)c1)CO2` (centres unmarked) [Example 11, N-[3-(3-Aminophenoxy)propyl]-2,3-dihydro-8-methoxy-1,4-benzodioxin-2-methanamine], in the assay with synthesis of dopamine (setting [2]), the inhibition at 10 mg/kg came out at 13%.

With `Nc1cccc(OCCCNCC2COc3cccc(O)c3O2)c1` (centres unmarked) [Example 12, N-[3-(3-Aminophenoxy)propyl]-2,3-dihydro-8-hydroxy-1,4-benzodioxin-2-methanamine], in the assay on synthesis of dopamine (setting [2]), the inhibition at 10 mg/kg came to 17.4%. As for `Nc1cccc(OCCCNCC2COc3ccc(Cl)cc3O2)c1` (centres unmarked) [Example 13, N-[3-(3-Aminophenoxy)propyl]-2,3-dihydro-7-chloro-1,4-benzodioxin-2-methanamine], the inhibition at 10 mg/kg in the assay with synthesis of dopamine (setting [2]) amounted to 9.1%.

Consider `COc1cc2c(cc1OC)OC(CNCCCOc1cccc(N)c1)CO2` (centres unmarked) [Example 14, N-[3-(3-Aminophenoxy)propyl]-2,3-dihydro-6,7-dimethoxy-1,4-benzodioxin-2-methanamine], for which the inhibition at 10 mg/kg in the assay on synthesis of dopamine (setting [2]) was 53.7%. In the case of `COc1ccc2c(c1OC)OCC(CNCCCOc1cccc(N)c1)O2` (centres unmarked) [Example 15, N-[3-(3-Aminophenoxy)propyl]-2,3-dihydro-5,6-dimethoxy-1,4-benzodioxin-2-methanamine], the inhibition at 10 mg/kg with synthesis of dopamine (setting [2]) is 7.6%. On to `Nc1cccc(OCCCNCC2COc3ccc(F)cc3O2)c1` (centres unmarked) [Example 16, N-[3-(3-Aminophenoxy)propyl]-2,3-dihydro-7-fluoro-1,4-benzodioxin-2-methanamine], for which, in the assay with mouse locomotor activity, the ED50 was found to be 1.4 mg/kg. Also, in the assay on synthesis of dopamine (setting [2]), the inhibition at 10 mg/kg stood at 59.9%. In addition, the inhibition at 0.1 µM in assay [1] turned out to be 87%. On to `COc1ccc2c(c1)O[C@@H](CNCCCOc1cccc(N)c1)CO2` [Example 17, (S)-N-[3-(3-Aminophenoxy)propyl]-2,3-dihydro-7-methoxy-1,4-benzodioxin-2-methanamine], for which, in the assay on synthesis of dopamine (setting [2]), the inhibition at 10 mg/kg is 28%. The same measure, in the same setting: the figure for `Cc1c(O)ccc2c1OC(CNCCCOc1cccc(N)c1)CO2` (centres unmarked) [Example 19, N-[3-(3-Aminophenoxy)propyl]-2,3-dihydro-7-hydroxy-8-methyl-1,4-benzodioxin-2-methanamine] is 21%.

In the case of `O=C1CC2(CCCC2)CC(=O)N1CCCCNCC1COc2ccccc2O1` (centres unmarked) [MDL 72832, 8-[4-(1,4-benzodioxan-2-ylmethylamino)butyl]-8-azaspiro[4.5]decane-7,9-dione], the “5-HT1A receptor ligand character” value in the assay on 5-HT1A receptor (in words, Fozard et al.) was “selective and stereospecific”. On to `O=C1CC2(CCCC2)CC(=O)N1CCCCN1CCN(c2ncccn2)CC1` [buspirone], for which the “affinity for the 5-HT1A serotonin receptor subtype” value in the assay with 5-HT1A receptor (in words, standard for anxiolytic activity) is listed as “potent affinity”.
